Where two headings read alike, the source gives them in different places. Bounds are passed on as bounds.

One experiment addresses FGFR2 (h) (Homo sapiens, UniProt P21802). The experiment in a line: FGFR2 (enzymatic assay), TR-FRET. It counts as biochemical. The following applies: read-out: FGFR 2 pIC50 (converted). The method, then: In a final reaction volume of 30 μL, FGFR2 (h) (150 ng/ml) was incubated with 50 mM HEPES pH 7.5, 6 mM MnCl2, 1 mM DTT, 0.1 mM Na3VO4, 0.01% Triton-X-100, 500 nM Btn-Flt3 and 0.4 μM ATP in the presence of compound (1% DMSO final). […] Time-Resolved Fluorescence Resonance Energy Transfer (TR-FRET) signal (ex340 nm. Em 620 nm, em 655 nm) was measured afterwards and results are expressed in (Relative Fluorescence Units).
On the technique in general: In TR-FRET formats the signal depends on donor and acceptor labels being close together.

For experiment [1], the system named is Ba/F3-Flt3-transfected cells in the presence of 10 ng/ml murine IL3. The experiment is described as follows: Ba/F3-Flt3 (plus IL3) cellular proliferation counterscreen, Alamar Blue. It counts as cell-based. The following applies: Mus musculus, read-out: BAF3-FLT3 (PLUS IL3) 384 well pIC50 (converted). (The purpose of a counterscreen is to sort out artefacts and off-target activity.)

The target in experiment [2] is Ba/F3-KDR-transfected cells (Homo sapiens, UniProt P35968). The experiment in a line: Ba/F3-KDR (minus IL3) cellular proliferation assay, Alamar Blue. It counts as cell-based. The method, boiled down:
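Measured with and without 10 ng/ml murine IL3: Ba/F3-KDR cells treated 24 h with compound, then 4 h Alamar Blue, fluorescence read at 540/590 nm.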
In general terms: The colour change of resazurin is a common sign of viable cells or microbes.

FGFR2 (h), sequence (P21802 22-821): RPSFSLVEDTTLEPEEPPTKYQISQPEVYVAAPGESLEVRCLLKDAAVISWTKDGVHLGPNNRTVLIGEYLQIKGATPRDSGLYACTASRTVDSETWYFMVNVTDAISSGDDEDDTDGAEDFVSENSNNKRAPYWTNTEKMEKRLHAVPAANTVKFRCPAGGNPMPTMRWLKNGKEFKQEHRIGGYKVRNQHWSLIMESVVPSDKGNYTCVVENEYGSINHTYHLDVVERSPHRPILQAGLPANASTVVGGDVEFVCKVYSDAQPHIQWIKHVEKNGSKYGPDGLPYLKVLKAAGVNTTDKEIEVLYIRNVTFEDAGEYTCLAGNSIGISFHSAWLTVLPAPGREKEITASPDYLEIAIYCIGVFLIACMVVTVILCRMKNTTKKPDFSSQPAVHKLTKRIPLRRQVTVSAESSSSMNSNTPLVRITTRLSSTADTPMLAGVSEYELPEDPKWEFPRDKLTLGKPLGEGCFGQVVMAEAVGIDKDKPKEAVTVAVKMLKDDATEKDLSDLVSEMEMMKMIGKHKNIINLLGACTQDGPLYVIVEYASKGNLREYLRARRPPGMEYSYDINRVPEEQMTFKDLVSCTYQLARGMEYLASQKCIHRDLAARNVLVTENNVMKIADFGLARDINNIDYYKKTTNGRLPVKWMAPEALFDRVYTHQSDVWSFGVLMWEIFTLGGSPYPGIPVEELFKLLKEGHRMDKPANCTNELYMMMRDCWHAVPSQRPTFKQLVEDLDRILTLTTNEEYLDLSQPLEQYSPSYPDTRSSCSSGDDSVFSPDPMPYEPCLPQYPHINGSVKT
Ba/F3-KDR-transfected cells, sequence (P35968 whole entry, change not shown): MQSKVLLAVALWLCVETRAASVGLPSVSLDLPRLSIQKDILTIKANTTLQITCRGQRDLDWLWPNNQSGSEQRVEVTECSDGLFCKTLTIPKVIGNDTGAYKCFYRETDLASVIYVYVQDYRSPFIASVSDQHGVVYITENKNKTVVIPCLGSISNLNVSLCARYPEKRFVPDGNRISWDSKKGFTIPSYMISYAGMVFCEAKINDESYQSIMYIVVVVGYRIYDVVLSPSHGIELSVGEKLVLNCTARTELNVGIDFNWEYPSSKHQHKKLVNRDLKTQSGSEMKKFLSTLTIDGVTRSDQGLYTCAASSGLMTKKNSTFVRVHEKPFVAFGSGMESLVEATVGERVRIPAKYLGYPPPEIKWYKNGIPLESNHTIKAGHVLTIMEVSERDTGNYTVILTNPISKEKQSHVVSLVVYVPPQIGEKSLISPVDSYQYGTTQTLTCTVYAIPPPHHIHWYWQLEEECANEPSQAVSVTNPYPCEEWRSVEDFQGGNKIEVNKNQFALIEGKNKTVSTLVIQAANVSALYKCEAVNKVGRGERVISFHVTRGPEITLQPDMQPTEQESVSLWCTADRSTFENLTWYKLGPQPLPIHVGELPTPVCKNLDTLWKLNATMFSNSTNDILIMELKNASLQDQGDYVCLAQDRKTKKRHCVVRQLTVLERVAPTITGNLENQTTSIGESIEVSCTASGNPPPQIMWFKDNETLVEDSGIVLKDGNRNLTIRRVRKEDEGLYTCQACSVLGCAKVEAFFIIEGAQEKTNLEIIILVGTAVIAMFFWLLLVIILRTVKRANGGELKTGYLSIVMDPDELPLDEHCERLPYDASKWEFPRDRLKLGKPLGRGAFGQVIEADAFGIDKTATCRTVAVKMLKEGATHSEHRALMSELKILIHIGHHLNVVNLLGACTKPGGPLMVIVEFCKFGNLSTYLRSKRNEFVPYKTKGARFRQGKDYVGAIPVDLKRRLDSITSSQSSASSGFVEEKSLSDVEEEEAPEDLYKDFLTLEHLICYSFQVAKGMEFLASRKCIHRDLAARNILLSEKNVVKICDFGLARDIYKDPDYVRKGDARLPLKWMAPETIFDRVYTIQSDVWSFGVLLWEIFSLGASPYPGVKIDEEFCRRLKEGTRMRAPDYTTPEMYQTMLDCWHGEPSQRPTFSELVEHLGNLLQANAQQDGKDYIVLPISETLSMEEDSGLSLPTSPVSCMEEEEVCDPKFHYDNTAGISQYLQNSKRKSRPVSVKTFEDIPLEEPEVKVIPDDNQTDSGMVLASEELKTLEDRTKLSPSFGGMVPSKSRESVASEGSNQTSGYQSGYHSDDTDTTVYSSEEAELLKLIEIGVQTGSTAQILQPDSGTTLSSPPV

For the compound `COc1cc(OC)cc(N(CC2CC2)c2ccc3ncc(-c4c[nH]cn4)nc3c2)c1` [Compound 39], the IC50 on FGFR2 (h) is 81.3 nM; in experiment [1] (plus 10 ng/ml murine IL3), above 10000 nM. Moreover, the “BAF3-KDR (MIN IL3) 384 well pIC50” value in experiment [2] (minus IL3) is reported as below 5.
Take `COc1cc(OC)cc(N(CC2CC2)c2ccc3ncc(N4CCN(C)CC4)nc3c2)c1` [Compound 64]: the IC50 is 331 nM at FGFR2 (h) and above 10000 nM in experiment [1] (plus IL3, 384 well). In experiment [2] (minus IL3, 384 well), the “BAF3-KDR (MIN IL3) 384 well pIC50” value was below 5.
For `COc1cc(OC)cc(N(CCCO)c2ccc3ncc(-c4ccnc(Cl)c4)nc3c2)c1` [Compound 136], the IC50 on FGFR2 (h) was 25.7 nM; in experiment [1] (plus 10 ng/ml murine IL3) it was above 10000 nM. Further, in experiment [2] (minus IL3), the “BAF3-KDR (MIN IL3) 384 well pIC50” value is given as below 5.
Regarding `COc1cc(OC)cc(N(CCN2CCNCC2)c2ccc3ncc(-c4ccc(N)nc4)nc3c2)c1` [Compound 59], the IC50 was 4.07 nM on FGFR2 (h) and above 10000 nM in experiment [1] (plus 10 ng/ml murine IL3). Further, the “BAF3-KDR (MIN IL3) 384 well pIC50” value in experiment [2] (minus IL3) is reported as 5.66.
For the compound `COc1cc(OC)cc(N(CCCO)c2ccc3ncc(-c4ccnc(C(=O)NCCOCCO)c4)nc3c2)c1` [Compound 186], the IC50 at FGFR2 (h) was 36.3 nM; in experiment [1] (plus 10 ng/ml murine IL3), above 10000 nM. In experiment [2] (minus IL3), the “BAF3-KDR (MIN IL3) 384 well pIC50” value is listed as below 5.
The corresponding values for `COC(=O)C1CCCN1c1cnc2ccc(N(CCO)c3cc(OC)cc(OC)c3)cc2n1` (stereo not drawn) [Compound 172] are 145 nM, above 10000 nM and below 5.
As to `COc1cc(OC)cc(N(CCN2CCN(C(C)=O)CC2)c2ccc3ncc(-c4ccc(N)nc4)nc3c2)c1` [Compound 68], the IC50 is 33.9 nM at FGFR2 (h) and above 10000 nM in experiment [1] (plus 10 ng/ml murine IL3). The “BAF3-KDR (MIN IL3) 384 well pIC50” value in experiment [2] (minus IL3) is given as below 5.
On to `COc1cc(OC)cc(N(CCO)c2ccc3ncc(-c4ccc(N5CCNCC5)cc4)nc3c2)c1` [Compound 166], for which the IC50 at FGFR2 (h) was 3.63 nM; in experiment [1] (plus 10 ng/ml murine IL3), around 5620 nM. Also, the “BAF3-KDR (MIN IL3) 384 well pIC50” value in experiment [2] (minus IL3) amounted to 5.55.
As to `COc1cc(OC)cc(N(CCCNCC(F)(F)F)c2ccc3ncc(-c4cnc(OC)nc4)nc3c2)c1` [Compound 26], the values for the IC50 (on FGFR2 (h); in experiment [1] (plus 10 ng/ml murine IL3)) were 138 nM and above 10000 nM, respectively. The “BAF3-KDR (MIN IL3) 384 well pIC50” value in experiment [2] (minus IL3) was below 5.
In the case of `COc1cc(OC)cc(N(CCNC(C)C)c2ccc3ncc(C(=O)N4CCCCC4)nc3c2)c1` [Compound 180], the figures for the IC50 (at FGFR2 (h); in experiment [1] (plus 10 ng/ml murine IL3)) were 302 nM and above 10000 nM, respectively. Further, the “BAF3-KDR (MIN IL3) 384 well pIC50” value in experiment [2] (minus IL3) is below 5.
In the case of `COc1cc(OC)cc(N(CC2CC2)c2ccc3ncc(-c4ccnc(N5CCN(C)CC5)c4)nc3c2)c1` [Compound 37], the IC50 at FGFR2 (h) is 95.5 nM; in experiment [1] (plus IL3, 384 well), 7940 nM. In experiment [2] (minus IL3, 384 well), the “BAF3-KDR (MIN IL3) 384 well pIC50” value is below 5.
Consider `COc1cc(OC)cc(N(CCCNCC(F)(F)F)c2ccc3ncc(C(=O)NCCN4CCOCC4)nc3c2)c1` [Compound 158], for which the IC50 at FGFR2 (h) is 661 nM; in experiment [1] (plus 10 ng/ml murine IL3), above 10000 nM. For the same compound, in experiment [2] (minus IL3), the “BAF3-KDR (MIN IL3) 384 well pIC50” value is given as below 5.
The corresponding values for `COCC(O)CN(c1cc(OC)cc(OC)c1)c1ccc2ncc(-c3cccnc3)nc2c1` (single isomer, unassigned) [Compound 46] are 12 nM, above 10000 nM and below 5.
The corresponding values for `COc1cc(OC)cc(N(CC2CC2)c2ccc3ncc(NC(=O)c4ccc(F)cc4)nc3c2)c1` [Compound 28] are 6170 nM, above 10000 nM and below 5.
For the compound `COc1cc(OC)cc(N(CCCNCC(F)(F)F)c2ccc3ncc(-c4ccnc(C(=O)NCCCCCO)c4)nc3c2)c1` [Compound 150], the IC50 at FGFR2 (h) is 70.8 nM; in experiment [1] (plus 10 ng/ml murine IL3) it was above 10000 nM. Besides, the “BAF3-KDR (MIN IL3) 384 well pIC50” value in experiment [2] (minus IL3) is on record as below 5.
For the compound `COc1cc(OC)cc(N(CCNC(C)C)c2ccc3ncc(-n4cnc(CO)c4)nc3c2)c1` [Compound 77], the IC50 on FGFR2 (h) was 9.12 nM; in experiment [1] (plus 10 ng/ml murine IL3), above 10000 nM. Besides, the “BAF3-KDR (MIN IL3) 384 well pIC50” value in experiment [2] (minus IL3) is given as 5.29.
The corresponding values for `COc1cc(OC)cc(N(CCCNCC(F)(F)F)c2ccc3ncc(-c4ccn(C)c4)nc3c2)c1` [Compound 5] are 15.1 nM, above 10000 nM and 5.07.
`COc1cc(OC)cc(N(CCCO)c2ccc3ncc(-c4ccnc(-c5ccnc(Cl)c5)c4)nc3c2)c1` [Compound 133]: the results for the IC50 (on FGFR2 (h); in experiment [1] (plus 10 ng/ml murine IL3)) were 115 nM and above 10000 nM, respectively. Further, the “BAF3-KDR (MIN IL3) 384 well pIC50” value in experiment [2] (minus IL3) is recorded as below 5.
As for `COc1cc(OC)cc(N(CCCO)c2ccc3ncc(-c4ccnc(C(=O)NCCCCCN)c4)nc3c2)c1` [Compound 130], the figures for the IC50 (at FGFR2 (h); in experiment [1] (plus 10 ng/ml murine IL3)) were 8.32 nM and above 10000 nM, respectively. In addition, the “BAF3-KDR (MIN IL3) 384 well pIC50” value in experiment [2] (minus IL3) was below 5.

The values above are taken from patent US10052320B2, “Substituted quinoxalines as FGFR kinase inhibitors” (ASTEX THERAPEUTICS LIMITED, priority 2011, dated 2018).
